# In article PMC3731299, “Isoniazid Inhibits the Heme-Based Reactivity of Mycobacterium tuberculosis Truncated Hemoglobin N” (PLoS ONE, 2013):
# Where two headings read alike, the source gives them in different places. Marks after values point to notes of the source that are not given here.
# How the values were obtained:
# Sperm whale Mb(III) = conditions: pH 7.5, 20.0°C; cited from earlier work
# Mt-trHbN(III) [1] = target: T1, Mt-trHbN(III) (Mycobacterium tuberculosis, UniProt P9WN25); assay: biochemical; type: binding
# T1 construct: made in house
# Mt-trHbN(III) [2] = target: T1, Mt-trHbN(III); assay: biochemical; type: binding; remark: listed apart in the source
# Mt-trHbN(III) [3] = target: T1, Mt-trHbN(III); assay: Peroxynitrite isomerization by Mt-trHbN(III) in the absence and presence of isoniazid; type: biochemical
# Experimental: Rapid-mixing experiments were performed using either the SX18.MV stopped-flow apparatus (Applied Photophysics, Salisbury, United Kingdom) or the SFM-20 stopped-flow apparatus (Bio-Logic SAS, Claix, France); the dead time was 1.0 ms.
# (§1) Kinetics of peroxynitrite isomerization by Mt-trHbN(III) in the absence and presence of isoniazid was recorded spectrophotometrically at 302 nm (ε302 nm = 1.705×10^3 M^−1 cm^−1) [60]–[67] in the absence and presence of Mt-trHbN(III) (final concentration 2.5×10^−6 – 1.0×10^−5 M) and isoniazid (final concentration 3.0×10^−5 – 4.0×10^−4 M) by rapid mixing the Mt-trHbN(III) or buffer solution with the peroxynitrite solution (final concentration 2.5×10^−4 M).
# Kinetics of peroxynitrite isomerization by Mt-trHbN(III) in the absence and presence of isoniazid was analyzed in the framework of the minimum reaction mechanism depicted by Scheme D [60]–[67]: [drawing 11] (D)
# Values of the pseudo-first-order rate constant for Mt-trHbN(III)-mediated peroxynitrite isomerization (i.e., l ^obs) were determined in the absence and presence of isoniazid according to Equation 8 [60]–[67]: [drawing 12] (8)
# Values of the second-order rate constant for Mt-trHbN(III)-mediated peroxynitrite isomerization (i.e., l on) and of the first-order rate constant for peroxynitrite isomerization in the absence of Mt-trHbN(III) (i.e., l 0) were determined from the linear dependence of l ^obs values on the Mt-trHbN(III) concentration according to Equation 9 [60]–[67]: [drawing 13] (9)
# The value of K for isoniazid binding to Mt-trHbN(III) was determined from the dependence of l on the drug concentration (i.e., 3.0×10^−5 M ≤ [isoniazid] ≤4.0×10^−4 M) according to Equation 11 [60]–[67]: [drawing 15] (11) where l on ^app is the value of l on in the presence of isoniazid.
# [4] = Peroxynitrite isomerization in the absence of Mt-trHbN(III); conditions: pH 7.0, 20.0°C
# Experimental: as §1
# Values of l 0 for peroxynitrite isomerization in the absence of Mt-trHbN(III) were also determined in the absence and presence of isoniazid from the analysis of the time-dependent absorbance decrease at 302 nm according to Equation 10 [60]–[67]: [drawing 14] (10)
# Mt-trHbN(III) [5] = target: T1, Mt-trHbN(III); type: biochemical
# Mt-trHbN(II) [6] = target: T2, Mt-trHbN(II) (Mycobacterium tuberculosis, UniProt P9WN25); assay: Isoniazid binding to Mt-trHbN(II), stopped-flow, anaerobic
# T2 construct: made in house
# Mt-trHbN(II) [7] = target: T2, Mt-trHbN(II); assay: O2 binding to Mt-trHbN(II) in the absence and presence of isoniazid (tonometer method)
# Experimental: The value of B was determined by the tonometer method adding small volumes of air to the Mt-trHbN(II) solution (1.3×10^−6 M), in the absence and presence of isoniazid ( = 1.0×10^−2 M; B ^obs).
# Mt-trHbN(II) [8] = target: T2, Mt-trHbN(II); type: binding
# KatG(III) = target: KatG(III); design: method as in PMID 17309235; conditions: pH 7.2, 25.0°C, cited from earlier work
# plasma protein = test system: plasma protein; design: method as in ref 89 = [89]; 89 Medical Economics (2004) Drug Information for the Health Care Professional, Thomson PDR, Montvale, p. 1689.; conditions: cited from earlier work
# Sperm whale Mb(II) = target: Sperm whale Mb(II); design: method as in ref 58 = [58]; 58 Antonini E, Brunori M (1971) Hemoglobin and myoglobin in their reactions with ligands. Amsterdam, London: North Holland Publishing Co.; conditions: read-out: B for O2 binding to sperm whale Mb(II); pH 7.0, 20.0°C; cited from earlier work
# [9] = isoniazid 1.0×10^−4 M, pH 7.0, 20.0°C
# [10] = isoniazid 1.2×10^−4 M, pH 7.0, 20.0°C
# [11] = isoniazid 2.0×10^−4 M, pH 7.0, 20.0°C
# [12] = isoniazid 2.4×10^−4 M, pH 7.0, 20.0°C
# [13] = isoniazid 3.0×10^−5 M, pH 7.0, 20.0°C
# [14] = isoniazid 5.0×10^−5 M, pH 7.0, 20.0°C
# [15] = isoniazid 6.0×10^−5 M, pH 7.0, 20.0°C
# [16] = Mt-trHbN(III) 5.0×10^−5 M, isoniazid 1.0×10^−2 M, pH 7.0, 20.0°C
# [17] = absence of Mt-trHbN(III), isoniazid and azide
# [18] = no Mt-trHbN(III), isoniazid 1.0×10^−2 M, pH 7.0, 20.0°C
smiles,measurement,setting,value
O=NOO [peroxynitrite],l on for peroxynitrite detoxification by sperm whale Mb(III),Sperm whale Mb(III),l on = 1.6×10^4 M^−1 s^−1 ^e
NNC(=O)c1ccncc1 [isoniazid],Hill coefficient n for isoniazid binding to Mt-trHbN(III),Mt-trHbN(III) [1]; pH 7,1.01±0.02
same,koff,"Mt-trHbN(III) [1]; pH 7.0, 20.0°C, Equation 3, read-out: first-order dissociation rate constant k off",0.46 s⁻¹
same,kon,"Mt-trHbN(III) [1]; pH 7.0, 20.0°C, Equation 3, read-out: second-order association rate constant k on",5300 M⁻¹ s⁻¹
same,Kd,"Mt-trHbN(III) [1]; pH 7.0, 20.0°C, obtained at equilibrium, Equation 1, read-out: dissociation equilibrium constant K for isoniazid binding to Mt-trHbN(III)",110 µM
same,Kd,"Mt-trHbN(III) [1]; pH 7.0, 20.0°C, read-out: K calculated from kinetic parameters (k off/k on)",87 µM
same,mode of inhibition of azide binding to Mt-trHbN(III),Mt-trHbN(III) [2]; 1.0×10^−3 M ≤ [isoniazid] ≤4.0×10^−3 M,inhibits competitively
same,Kd,"Mt-trHbN(III) [2]; Equation 7, H obs/H ratio versus [isoniazid] 1.0×10^−3 to 4.0×10^−3 M, pH 7.0, 20.0°C",95 µM
same,Kd,"Mt-trHbN(III) [3]; Equation 11, dependence of l on [isoniazid] 3.0×10^−5 to 4.0×10^−4 M, pH 7.0, 20.0°C, read-out: K for isoniazid binding to Mt-trHbN(III) from inhibition of peroxynitrite isomerization",130 µM
same,Mt-trHbN(III) catalysis of peroxynitrite isomerization,Mt-trHbN(III) [3]; [isoniazid] >10×K,does not catalyze the isomerization of peroxynitrite
same,average l 0 value (l 0 unaffected by isoniazid),"Mt-trHbN(III) [3]; absence and presence of isoniazid, pH 7.0, 20.0°C",0.28 s⁻¹
same,Hill coefficient n for isoniazid binding to Mt-trHbN(III),Mt-trHbN(III) [3]; from dependence of l on isoniazid concentration,1.00±0.02
same,l 0 for Mt-trHbN(III)-catalyzed peroxynitrite isomerization (y intercept),Mt-trHbN(III) [3]; [9],(3.1±0.3)×10^−1 s^−1
same,"l on app, second-order rate constant for Mt-trHbN(III)-mediated peroxynitrite isomerization",Mt-trHbN(III) [3]; [9],(3.3±0.3)×10^4 M^−1 s^−1
same,l 0 for Mt-trHbN(III)-catalyzed peroxynitrite isomerization (y intercept),Mt-trHbN(III) [3]; [10],(2.6±0.3)×10^−1 s^−1
same,"l on app, second-order rate constant for Mt-trHbN(III)-mediated peroxynitrite isomerization",Mt-trHbN(III) [3]; [10],(3.2±0.3)×10^4 M^−1 s^−1
same,l 0 for Mt-trHbN(III)-catalyzed peroxynitrite isomerization (y intercept),Mt-trHbN(III) [3]; [11],(2.5±0.3)×10^−1 s^−1
same,"l on app, second-order rate constant for Mt-trHbN(III)-mediated peroxynitrite isomerization",Mt-trHbN(III) [3]; [11],(2.7±0.3)×10^4 M^−1 s^−1
same,l 0 for Mt-trHbN(III)-catalyzed peroxynitrite isomerization (y intercept),Mt-trHbN(III) [3]; [12],(3.0±0.3)×10^−1 s^−1
same,"l on app, second-order rate constant for Mt-trHbN(III)-mediated peroxynitrite isomerization",Mt-trHbN(III) [3]; [12],(2.4±0.3)×10^4 M^−1 s^−1
same,l 0 for Mt-trHbN(III)-catalyzed peroxynitrite isomerization (y intercept),Mt-trHbN(III) [3]; [13],(2.9±0.3)×10^−1 s^−1
same,"l on app, second-order rate constant for Mt-trHbN(III)-mediated peroxynitrite isomerization",Mt-trHbN(III) [3]; [13],(5.1±0.5)×10^4 M^−1 s^−1
same,l 0 for Mt-trHbN(III)-catalyzed peroxynitrite isomerization (y intercept),"Mt-trHbN(III) [3]; isoniazid 4.0×10^−4 M, pH 7.0, 20.0°C",(2.5±0.3)×10^−1 s^−1
same,l 0 for Mt-trHbN(III)-catalyzed peroxynitrite isomerization (y intercept),Mt-trHbN(III) [3]; [14],(2.8±0.3)×10^−1 s^−1
same,"l on app, second-order rate constant for Mt-trHbN(III)-mediated peroxynitrite isomerization",Mt-trHbN(III) [3]; [14],(4.4±0.4)×10^4 M^−1 s^−1
same,l 0 for Mt-trHbN(III)-catalyzed peroxynitrite isomerization (y intercept),Mt-trHbN(III) [3]; [15],(3.0±0.3)×10^−1 s^−1
same,"l on app, second-order rate constant for Mt-trHbN(III)-mediated peroxynitrite isomerization",Mt-trHbN(III) [3]; [15],(4.1±0.4)×10^4 M^−1 s^−1
same,l 0 for peroxynitrite isomerization in the absence of Mt-trHbN(III),[4]; isoniazid 1.0×10^−4 M,(3.2±0.3)×10 ^−1 s^−1
same,l 0 for peroxynitrite isomerization in the absence of Mt-trHbN(III),[4]; isoniazid 1.2×10^−4 M,(2.4±0.3)×10 ^−1 s^−1
same,l 0 for peroxynitrite isomerization in the absence of Mt-trHbN(III),[4]; isoniazid 2.0×10^−4 M,(2.6±0.3) ×10 ^−1 s^−1
same,l 0 for peroxynitrite isomerization in the absence of Mt-trHbN(III),[4]; isoniazid 2.4×10^−4 M,(2.9±0.3)×10 ^−1 s^−1
same,l 0 for peroxynitrite isomerization in the absence of Mt-trHbN(III),[4]; isoniazid 3.0×10^−5 M,(2.7±0.3)×10 ^−1 s^−1
same,l 0 for peroxynitrite isomerization in the absence of Mt-trHbN(III),[4]; isoniazid 4.0×10^−4 M,(2.6±0.3)×10 ^−1 s^−1
same,l 0 for peroxynitrite isomerization in the absence of Mt-trHbN(III),[4]; isoniazid 5.0×10^−5 M,(3.0 ±0.3)×10 ^−1 s^−1
same,l 0 for peroxynitrite isomerization in the absence of Mt-trHbN(III),[4]; isoniazid 6.0×10^−5 M,(2.6±0.3)×10 ^−1 s^−1
same,average yield of NO2 –,Mt-trHbN(III) [5],26%
same,average yield of NO3 –,Mt-trHbN(III) [5],74%
same,NO2 –,Mt-trHbN(III) [5]; [16],25±4%
same,NO3 –,Mt-trHbN(III) [5]; [16],74±8%
same,NO3 – + NO2 –,Mt-trHbN(III) [5]; [16],99%
same,NO2 –,Mt-trHbN(III) [5]; pH 7,26±4%
same,NO3 –,Mt-trHbN(III) [5]; pH 7,75±8%
same,NO3 – + NO2 –,Mt-trHbN(III) [5]; pH 7,101%
same,average yield of NO2 –,[17],29%
same,average yield of NO3 –,[17],72%
same,NO2 –,[18],31±4%
same,NO3 –,[18],71±6%
same,NO3 – + NO2 –,[18],102%
same,NO2 –,pH 7,28±4%
same,NO3 –,pH 7,72±5%
same,NO3 – + NO2 –,pH 7,100%
same,lower affinity for the ferrous form than for the ferric form,Mt-trHbN(II) [6]; Mt-trHbN(II) versus Mt-trHbN(III),10 fold
same,Kd,Mt-trHbN(II) [6]; average of the D values here determined,1200 µM
same,Hill coefficient n for isoniazid binding to Mt-trHbN(II),"Mt-trHbN(II) [6]; pH 7.0, 20.0°C",1.01±0.01
same,koff,"Mt-trHbN(II) [6]; pH 7.0, 20.0°C, Equation 14, read-out: first-order dissociation rate constant d off",1.5 s⁻¹
same,kon,"Mt-trHbN(II) [6]; pH 7.0, 20.0°C, Equation 14, read-out: second-order association rate constant d on",1300 M⁻¹ s⁻¹
same,mode of inhibition of O2 binding to Mt-trHbN(II),Mt-trHbN(II) [7]; [isoniazid] = 1.0×10^−2 M,inhibits competitively
same,effect of isoniazid on CO binding to Mt-trHbN(II),Mt-trHbN(II) [8]; 5.0×10^−3 M isoniazid,grossly impairs CO binding
same,phases of CO binding to Mt-trHbN(II),"Mt-trHbN(II) [8]; [isoniazid] ≥1.0×10^−2 M, data not shown",only the slow phase is observed
same,Kd,"KatG(III); obtained at equilibrium, read-out: K for isoniazid binding to KatG(III)",~1 µM
same,k off for isoniazid binding to KatG(III),KatG(III),k off = 2.0×10^−2 s^−1
same,k on for isoniazid binding to KatG(III),KatG(III),k on = 4.8×10^2 M^−1 s^−1
same,Kd,KatG(III); read-out: K calculated from kinetic parameters (k off/k on) for KatG(III),42 µM
same,plasma protein binding,plasma protein,very poor
O=O [O2],Kd,"Mt-trHbN(II) [7]; [isoniazid] = 1.0×10^−2 M, from B and D, read-out: B obs calculated according to Equation 16",0.41 µM
same,P 50 for O2 binding to Mt-trHbN(II) in the presence of isoniazid,"Mt-trHbN(II) [7]; [isoniazid] = 1.0×10^−2 M, corresponds to B obs",(2.3±0.3)×10^−1 mm Hg
same,P 50 for O2 binding to Mt-trHbN(II),"Mt-trHbN(II) [7]; absence of isoniazid, corresponds to B",(2.4±0.4)×10^−2 mm Hg
same,Kd,"Mt-trHbN(II) [7]; read-out: dissociation equilibrium constant B for O2 binding to Mt-trHbN(II), absence of isoniazid, pH 7.0, 20.0°C, Equation 15",0.044 µM
same,Kd,Sperm whale Mb(II),0.52 µM
